Laboratory results as given in the supplement of paper PMC10307832.

What was measured:
Experiment in all cases: relative viability (nuclei count vs DMSO), 5 days (fraction); higher = more cells survive
Alisertib + Luminespib = compound: COc1cc(Nc2ncc3c(n2)-c2ccc(Cl)cc2C(c2c(F)cccc2OC)=NC3)ccc1C(=O)O [Alisertib] + CCNC(=O)c1noc(-c2cc(C(C)C)c(O)cc2O)c1-c1ccc(CN2CCOCC2)cc1 [Luminespib] (partner 0.01 µM)
Summary of the method: (§1)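 Each reported value is a median over duplicate plates. It expresses relative viability: treated-well nuclei count divided by vehicle-well nuclei count. Lung cancer cell lines in 1536-well plates were dosed by pin tool a day after seeding, alone with one drug or with a fixed anchor-drug dose plus five library-drug doses (not always all listed) in √10 steps, and nuclei were counted after 5 days.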

Alisertib + Bortezomib = compound: COc1cc(Nc2ncc3c(n2)-c2ccc(Cl)cc2C(c2c(F)cccc2OC)=NC3)ccc1C(=O)O [Alisertib] + CC(C)C[C@H](NC(=O)[C@H](Cc1ccccc1)NC(=O)c1cnccn1)B(O)O [Bortezomib] (partner 0.002 µM)
Summary of the method: as §1

Alisertib + Dasatinib = compound: COc1cc(Nc2ncc3c(n2)-c2ccc(Cl)cc2C(c2c(F)cccc2OC)=NC3)ccc1C(=O)O [Alisertib] + Cc1nc(Nc2ncc(C(=O)Nc3c(C)cccc3Cl)s2)cc(N2CCN(CCO)CC2)n1 [Dasatinib] (partner 0.075 µM)
Summary of the method: as §1

Alisertib + Palbociclib = compound: COc1cc(Nc2ncc3c(n2)-c2ccc(Cl)cc2C(c2c(F)cccc2OC)=NC3)ccc1C(=O)O [Alisertib] + CC(=O)c1c(C)c2cnc(Nc3ccc(N4CCNCC4)cn3)nc2n(C2CCCC2)c1=O [Palbociclib] (partner 0.5 µM)
Summary of the method: as §1

Cell Line | relative viability (Alisertib + Luminespib; first compound 0.005 µM) | relative viability (Alisertib + Luminespib; first compound 0.01581 µM) | relative viability (Alisertib + Luminespib; first compound 0.05 µM) | relative viability (Alisertib + Luminespib; first compound 0.1581 µM) | relative viability (Alisertib + Luminespib; first compound 0.5 µM) | relative viability (Alisertib + Bortezomib; first compound 0.005 µM) | relative viability (Alisertib + Bortezomib; first compound 0.01581 µM) | relative viability (Alisertib + Bortezomib; first compound 0.05 µM) | relative viability (Alisertib + Bortezomib; first compound 0.1581 µM) | relative viability (Alisertib + Bortezomib; first compound 0.5 µM) | relative viability (Alisertib + Dasatinib; first compound 0.005 µM) | relative viability (Alisertib + Dasatinib; first compound 0.01581 µM) | relative viability (Alisertib + Dasatinib; first compound 0.05 µM) | relative viability (Alisertib + Dasatinib; first compound 0.1581 µM) | relative viability (Alisertib + Dasatinib; first compound 0.5 µM) | relative viability (Alisertib + Palbociclib; first compound 0.005 µM) | relative viability (Alisertib + Palbociclib; first compound 0.01581 µM) | relative viability (Alisertib + Palbociclib; first compound 0.05 µM) | relative viability (Alisertib + Palbociclib; first compound 0.1581 µM) | relative viability (Alisertib + Palbociclib; first compound 0.5 µM)
NCI-H1915 | 0.684 | 0.452 | 0.151 | 0.148 | 0.185 | 0.763 | 0.811 | 0.607 | 0.327 | 0.237 | 0.297 | 0.299 | 0.295 | 0.148 | 0.14 | 0.497 | 0.455 | 0.29 | 0.234 | 0.151
NCI-H3122 | 0.105 | 0.101 | 0.0716 | 0.0737 | 0.0805 | 0.987 | 1.04 | 0.865 | 0.47 | 0.308 | 0.581 | 0.664 | 0.498 | 0.103 | 0.134 | 0.174 | 0.174 | 0.215 | 0.139 | 0.149
NCI-H1651 | 0.81 | 0.782 | 0.306 | 0.263 | 0.169 | 0.87 | 0.928 | 0.526 | 0.339 | 0.194 | 0.357 | 0.293 | 0.204 | 0.151 | 0.163 | 0.476 | 0.486 | 0.333 | 0.21 | 0.189
PC-14 | 0.177 | 0.141 | 0.146 | 0.134 | 0.151 | 0.876 | 0.732 | 0.515 | 0.208 | 0.0801 | 0.213 | 0.248 | 0.177 | 0.0304 | 0.0192 | 0.526 | 0.45 | 0.332 | 0.082 | 0.0483
NCI-H647 | 0.151 | 0.132 | 0.0794 | 0.0983 | 0.0961 | 0.598 | 0.572 | 0.305 | 0.133 | 0.086 | 0.186 | 0.16 | 0.104 | 0.0476 | 0.0381 | 0.282 | 0.332 | 0.161 | 0.0956 | 0.0773
SW 1573 | 0.28 | 0.139 | 0.106 | 0.0766 | 0.102 | 0.937 | 0.726 | 0.492 | 0.29 | 0.161 | 0.329 | 0.299 | 0.141 | 0.159 | 0.0978 | 0.304 | 0.27 | 0.152 | 0.134 | 0.117
NCI-H441 | 0.369 | 0.364 | 0.223 | 0.218 | 0.242 | 0.715 | 0.394 | 0.184 | 0.17 | 0.155 | 0.621 | 0.332 | 0.186 | 0.165 | 0.176 | 0.182 | 0.225 | 0.117 | 0.125 | 0.123
NCI-H661 | 0.94 | 0.875 | 0.611 | 0.377 | 0.296 | 0.845 | 0.557 | 0.521 | 0.304 | 0.297 | 0.57 | 0.675 | 0.416 | 0.258 | 0.297 | 0.414 | 0.401 | 0.367 | 0.296 | 0.294
